Assay results published in article PMC8317065, “UPLC-MS/MS Method for Analysis of Endocannabinoid and Related Lipid Metabolism in Mouse Mucosal Tissue” (Frontiers in Physiology, 2021).

Columns and labels:
human recombinant DGL = system: human recombinant DGL; design: method as in Bisogno et al., 2006; details: ref Bisogno et al., 2006, read-out: IC50 reported for human recombinant DGL; cited from earlier work
DGL = DGL activity assay, UPLC-MS/MS, lung protein isolates; type: biochemical, mouse; details: for DAG metabolism (normalized response): lung protein 50 μg
Method: Homogenized samples were centrifuged at 800 × g for 15 m at 4°C. The supernatant was collected in a 2.0 mL centrifuge tube and sonicated twice for 10 s. Samples underwent two sequential freeze thaw cycles using liquid N2. Samples were again centrifuged at 800 × g, 15 min, 4°C and the supernatant was collected. Total protein was then quantified via BCA assay and normalized between all samples. Protein isolations for each assay and each tissue were performed separately.
Substrate solutions were prepared by drying stock 19:2 DAG (20 nmol/reaction) under N2 steam (99.998% pure) and reconstituted in a solution of 50 mM Tris–HCl with 0.2% Triton x-100 (pH = 7.0). This solution was bath sonicated for 60 min at room temperature while protein samples were prepared. […] In addition, the ABHD6 inhibitor, WWL 70 (10 μM), was added to lung protein isolates for the 10-minute room temperature incubation to ensure the product of interest was not metabolized ([Tchantchou and Zhang, 2013]). Dose-inhibition experiments included addition of the DGL inhibitor, THL [albeit not selective for DGL, see [Hoover et al. (2008)]; [DiPatrizio et al. (2015)]]. […] The products of the reaction were extracted via lipid extraction methods (see section “Lipid Extraction for Enzyme Assays”) and quantified via UPLC-MS/MS (see section “Quantitation of MAG Biosynthetic Enzyme Activity Assay Products”).
Lipids were extracted using liquid-liquid extraction with chloroform (2.0 mL) followed by 0.8 mL 0.2-micron ultra-purified water. […] Products were detected and quantified via UPLC-MS/MS techniques (see section “UPLC-MS/MS Detection of Analytes”).
Analytes were eluted at a flow rate of 0.4 mL/min and gradient: 80% methanol 0.0–0.5 min, 80–100% methanol 0.5–2.5 min, 100% methanol 2.5–3.0 min, 100–80% methanol 3.0–3.1 min, and 80% methanol 3.1–4.5 min. […] Lipids were quantified using a stable isotope serial dilution method detecting H^+ or Na^+ adducts of the molecular ions [M + H/Na]^+ in multiple reactions monitoring (MRM) mode (variable amounts of product 19:2 MAG versus fixed amount of internal standard [^2H5]-2-AG). […]

For CCCCCCCCCCC[C@@H](C[C@@H]1OC(=O)[C@H]1CCCCCC)OC(=O)[C@H](CC(C)C)NC=O [THL, tetrahydrolipstatin], the IC50 (human recombinant DGL) is given as 60 nM, the “DAG metabolism (normalized response)” value (DGL; highest inhibitor concentration of range (1,000 nM)) is given as 10.19 ± 0.29% and the “DAG metabolism (normalized response)” value (DGL; lowest inhibitor concentration of range (3 nM)) is given as 90.26 ± 9.07%. It also gave an IC50 (DGL; mouse lung protein isolates 50 μg, THL 3-1,000 nM, read-out: IC50, inhibition of DAG metabolism (DGL activity)) of 74.6 nM.
